Test results as given in patent publication US10570122B2, “Compounds with anti-tumoral activity” (AB Science, priority 2015, dated 2020).
pIC50: −log10 of the molar value.

Legend:
DLD1 = test: CellTiter-Blue cell-based survival/proliferation assay, DLD1; details: Homo sapiens, DLD-1; DLD_1 colorectal tumor cell line, 48 h
In short: (§1)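 Tenfold compound dilutions (0–10 μM) were added to 1·10^4 cells/well. Plates incubated 48 h at 37 °C. CellTiter-Blue reduction (4 h, 37 °C) was read as fluorescence at 590 nm, background-corrected with a cell-free blank.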

TOV112D = test: CellTiter-Blue cell-based survival/proliferation assay, TOV112D; details: Homo sapiens; TOV112D ovary tumor cell line, 48 h
In short: as §1

A549 = test: CellTiter-Blue cell-based survival/proliferation assay, A549; details: Homo sapiens; A549 lung tumor cell line, 48 h
In short: as §1

SW579 = test: CellTiter-Blue cell-based survival/proliferation assay, SW579; details: Homo sapiens; SW579 head & neck tumor cell line, 48 h
In short: as §1

HGC27 = test: CellTiter-Blue cell-based survival/proliferation assay, HGC27; details: Homo sapiens, HGC-27; HGC27 stomach tumor cell line, 48 h
In short: as §1

PC3 = test: CellTiter-Blue cell-based survival/proliferation assay, PC3; details: Homo sapiens, PC-3; PC3 prostate tumor cell line, 48 h
In short: as §1

CALU6 = test: CellTiter-Blue cell-based survival/proliferation assay, CALU6; details: Homo sapiens, Calu-6; CALU6 lung tumor cell line, 48 h
In short: as §1

REC1 = test: CellTiter-Blue cell-based survival/proliferation assay, REC1; details: Homo sapiens, Lymphoma cell line REC1, 48 h, read-out: Anti-tumoral activity (measured IC50) REC1
In short: as §1

MELWO = test: CellTiter-Blue cell-based survival/proliferation assay, MELWO; details: Homo sapiens; MEL_WO melanoma cell line, 48 h
Experimental: (§2) Cell-Based Proliferation Screening of Compounds
(§3) CellTiter-Blue cell-based survival/proliferation assay (Promega G8080) was performed on tumor cell lines. A total of 1·10^4 cells/well/50 μl were seeded in a 96-wells plate. Treatment was initiated by addition of a 2× drug solution of 1/10 serial dilutions ranging from 0 to 10 μM. Cells were grown for 48 h at 37° C. and then incubated with 10 μl/well of Promega CellTiter-Bleue reagent for 4 h at 37° C. The amount of resorufin dye formed was quantified by its fluorescence emission at 590 nm using a scanning multiwell spectrophotometer (OPTIMA, BMG labtech, France). A blank well without cells was used as a background control for the spectrophotometer.

CLS354 = test: CellTiter-Blue cell-based survival/proliferation assay, CLS354; details: Homo sapiens, CLS-354; CLS354_4 head & neck tumor cell line, 48 h
In short: as §1

U87MG = test: CellTiter-Blue cell-based survival/proliferation assay, U87MG; details: Homo sapiens, U-87 MG; U87_MG glioblastoma cell line, 48 h
Experimental: as §2, §3

A375 = test: CellTiter-Blue cell-based survival/proliferation assay, A375; details: Homo sapiens, A-375; A375 melanoma cell line, 48 h
Experimental: as §2, §3

HL60 = test: CellTiter-Blue cell-based survival/proliferation assay, HL60; details: Homo sapiens, HL-60, Leukemia cell line HL60, 48 h, read-out: Anti-tumoral activity (measured IC50) HL60
In short: as §1

U2OS = test: CellTiter-Blue cell-based survival/proliferation assay, U2OS; details: Homo sapiens; U2OS osteosarcoma cell line, 48 h
Experimental: as §2, §3

MESSA = test: CellTiter-Blue cell-based survival/proliferation assay, MESSA; details: Homo sapiens, MES-SA; MESSA ovary tumor cell line, 48 h
In short: as §1

HEPG2 = test: CellTiter-Blue cell-based survival/proliferation assay, HEPG2; details: Homo sapiens; HEPG2 liver tumor cell line, 48 h
In short: as §1

HCT116 = test: CellTiter-Blue cell-based survival/proliferation assay, HCT116; details: Homo sapiens, HCT-116; HCT116 colorectal tumor cell line, 48 h
In short: as §1

BXPC3 = test: CellTiter-Blue cell-based survival/proliferation assay, BXPC3; details: Homo sapiens, BXPC-3; BXPC3 pancreas tumor cell line, 48 h
In short: as §1

HUT78 = test: CellTiter-Blue cell-based survival/proliferation assay, HUT78; details: Homo sapiens, Lymphoma cell line HUT78, 48 h, read-out: Anti-tumoral activity (measured IC50) HUT78
In short: as §1

U118 = test: CellTiter-Blue cell-based survival/proliferation assay, U118; details: Homo sapiens; U118 glioblastoma cell line, 48 h
Experimental: as §2, §3

MDAMB231 = test: CellTiter-Blue cell-based survival/proliferation assay, MDAMB231; details: Homo sapiens, MDA-MB-231; MDAMB231 breast tumor cell line, 48 h
In short: as §1

ACHN = test: CellTiter-Blue cell-based survival/proliferation assay, ACHN; details: Homo sapiens; ACHN kidney tumor cell line, 48 h
In short: as §1

A498 = test: CellTiter-Blue cell-based survival/proliferation assay, A498; details: Homo sapiens; A498 kidney tumor cell line, 48 h
In short: as §1

OPM2 = test: CellTiter-Blue cell-based survival/proliferation assay, OPM2; details: Homo sapiens, OPM-2, Myeloma cell line OPM2, 48 h, read-out: Anti-tumoral activity (measured IC50) OPM2
In short: as §1

DU145 = test: CellTiter-Blue cell-based survival/proliferation assay, DU145; details: Homo sapiens, DU-145; DU145 prostate tumor cell line, 48 h
In short: as §1

A4513 = test: CellTiter-Blue cell-based survival/proliferation assay, A4513; details: Homo sapiens; A4513 Ewing cell line, 48 h
Experimental: as §2, §3

PLCPRF5 = test: CellTiter-Blue cell-based survival/proliferation assay, PLCPRF5; details: Homo sapiens, PLC-PRF-5; PLC_PRF5 liver tumor cell line, 48 h
In short: as §1

KARPAS299 = test: CellTiter-Blue cell-based survival/proliferation assay, KARPAS299; details: Homo sapiens, KARPAS-299, Lymphoma cell line KARPAS299, 48 h, read-out: Anti-tumoral activity (measured IC50) KARPAS299
In short: as §1

AGS = test: CellTiter-Blue cell-based survival/proliferation assay, AGS; details: Homo sapiens; AGS stomach tumor cell line, 48 h
In short: as §1

[1] = tested on: human kinases (456 kinases); test: KINOMEscan in vitro kinase profiling; format: binding
Experimental: An in vitro kinase profiling was conducted in order to evidence the absence of protein kinase inhibition by the compounds of the invention.
DiscoveRx (Ambit Biosciences) has developed a high-throughput system (KINOMEscan™) for screening of compounds against large numbers of human kinases (456 kinases).
The compounds of the invention were screened at the concentration of 1 μM, and results for primary screen binding interactions were reported as percent control (% Ctrl), where lower numbers indicate stronger hits. DMSO is used as a negative control (100% Ctrl) while a high affinity compound is used as a positive control (0% Ctrl). % Ctrl is calculated as follow:
[formula] Selectivity Score or S-score is a quantitative measure of compound selectivity. It is calculated by dividing the number of kinases that compounds bind to by the total number of distinct kinases tested, excluding mutant variants. S(10)=(number of kinases with % Ctrl<10)/(number of kinases tested), S(1)=(number of kinases with % Ctrl<1)/(number of kinases tested).

PANC1 = test: CellTiter-Blue cell-based survival/proliferation assay, PANC1; details: Homo sapiens, PANC-1; PANC_1 pancreas tumor cell line, 48 h
In short: as §1

H1299 = test: CellTiter-Blue cell-based survival/proliferation assay, H1299; details: Homo sapiens, NCI-H1299; H1299 lung tumor cell line, 48 h
In short: as §1

HEP2 = test: CellTiter-Blue cell-based survival/proliferation assay, HEP2; details: Homo sapiens, HEp-2; HEP2 head & neck tumor cell line, 48 h
In short: as §1

BT20 = test: CellTiter-Blue cell-based survival/proliferation assay, BT20; details: Homo sapiens, BT-20; BT20 breast tumor cell line, 48 h
In short: as §1

| SMILES | pIC50 (DLD1) | pIC50 (TOV112D) | pIC50 (A549) | pIC50 (SW579) | pIC50 (HGC27) | pIC50 (PC3) | pIC50 (CALU6) | pIC50 (REC1) | pIC50 (MELWO) | pIC50 (CLS354) | pIC50 (U87MG) | pIC50 (A375) | pIC50 (HL60) | pIC50 (U2OS) | pIC50 (MESSA) | pIC50 (HEPG2) | pIC50 (HCT116) | pIC50 (BXPC3) | pIC50 (HUT78) | pIC50 (U118) | also measured |
| --- | --- | --- | --- | --- | --- | --- | --- | --- | --- | --- | --- | --- | --- | --- | --- | --- | --- | --- | --- | --- | --- |
| CCOCc1ccc(C)c(Nc2ncc(-c3ccc(N4CCNC4=O)cc3)o2)c1 [Example 006, 1-{4-[2-(5-Ethoxymethyl-(2-methyl-phenylamino))-oxazol-5-yl]-phenyl}-imidazolidin-2-one] | ≥ 7.00 | ≥ 7.00 | < 6.00 | < 6.00 | < 6.00 | ≥ 7.00 | < 6.00 | ≥ 7.00 | ≥ 7.00 | ≥ 7.00 | < 6.00 | ≥ 7.00 | ≥ 7.00 | 6.30 to 7.00 | < 6.00 | < 6.00 | < 6.00 | ≥ 7.00 | ≥ 7.00 | < 6.00 | pIC50 (MDAMB231): ≥ 7.00; pIC50 (ACHN): ≥ 7.00; pIC50 (A498): 6.30 to 7.00; pIC50 (OPM2): ≥ 7.00; pIC50 (DU145): < 6.00; pIC50 (A4513): ≥ 7.00; pIC50 (PLCPRF5): < 6.00; pIC50 (KARPAS299): ≥ 7.00; pIC50 (AGS): < 6.00; Interaction with the 456 kinases tested ([1]; screened at 1 μM): do not efficiently interact; Number of hits/number of kinases, S1 ([1]; tested at 1 μM, S(1): kinases with % Ctrl<1): 0/456; S-score, S1 ([1]; tested at 1 μM, S(1)=(number of kinases with % Ctrl<1)/(number of kinases tested)): 0.000; Number of hits/number of kinases, S10 ([1]; tested at 1 μM, S(10): kinases with % Ctrl<10): 0/456; S-score, S10 ([1]; tested at 1 μM, S(10)=(number of kinases with % Ctrl<10)/(number of kinases tested)): 0.000; Kinase targets, S1 ([1]; tested at 1 μM, kinases with % Ctrl<1): None; pIC50 (PANC1): < 6.00; pIC50 (H1299): < 6.00; pIC50 (HEP2): < 6.00; pIC50 (BT20): 6.30 to 7.00 |
| CCOCc1ccc(C)c(Nc2ncc(-c3ccc(N4CCNC4=O)cc3)s2)c1 [Example 014, 1-{4-[2-(5-Ethoxymethyl-(2-methyl-phenylamino))-thiazol-5-yl]-phenyl}-imidazolidin-2-one] | < 6.00 | < 6.00 | < 6.00 | < 6.00 | < 6.00 | < 6.00 | < 6.00 | < 6.00 | < 6.00 | < 6.00 | < 6.00 | < 6.00 | < 6.00 | < 6.00 | < 6.00 | < 6.00 | < 6.00 | < 6.00 | < 6.00 | < 6.00 | pIC50 (MDAMB231): < 6.00; pIC50 (ACHN): < 6.00; pIC50 (A498): < 6.00; pIC50 (OPM2): < 6.00; pIC50 (DU145): < 6.00; pIC50 (A4513): 6.00 to 6.30; pIC50 (PLCPRF5): < 6.00; pIC50 (KARPAS299): 6.30 to 7.00; pIC50 (AGS): < 6.00; pIC50 (PANC1): < 6.00; pIC50 (H1299): < 6.00; pIC50 (HEP2): < 6.00; pIC50 (BT20): < 6.00 |
| Cc1ccc(C(=O)NCCN2CCOCC2)cc1Nc1ncc(-c2ccc(-n3cccn3)cc2)o1 [Example 005, 4-Methyl-N-(2-morpholin-4-yl-ethyl)-3-[5-(4-pyrazol-1-yl-phenyl)-oxazol-2-ylamino]-benzamide] | < 6.00 | < 6.00 | < 6.00 | < 6.00 | < 6.00 | < 6.00 | < 6.00 | < 6.00 | < 6.00 | < 6.00 | < 6.00 | < 6.00 | < 6.00 | < 6.00 | < 6.00 | < 6.00 | < 6.00 | < 6.00 | < 6.00 | < 6.00 | pIC50 (MDAMB231): < 6.00; pIC50 (ACHN): < 6.00; pIC50 (A498): < 6.00; pIC50 (OPM2): < 6.00; pIC50 (DU145): < 6.00; pIC50 (A4513): < 6.00; pIC50 (PLCPRF5): < 6.00; pIC50 (KARPAS299): < 6.00; pIC50 (AGS): < 6.00; pIC50 (PANC1): < 6.00; pIC50 (H1299): < 6.00; pIC50 (HEP2): < 6.00; pIC50 (BT20): < 6.00 |
| COc1ccc(C)c(Nc2ncc(-c3ccc(N4CCNC4=O)cc3)s2)c1 [Example 013, 1-{4-[2-(5-Methoxy-2-methyl-phenylamino)-thiazol-5-yl]-phenyl}-imidazolidin-2-one] | < 6.00 | < 6.00 | < 6.00 | < 6.00 | < 6.00 | 6.00 to 6.30 | < 6.00 | 6.00 to 6.30 | < 6.00 | < 6.00 | < 6.00 | < 6.00 | 6.30 to 7.00 | < 6.00 | < 6.00 | < 6.00 | < 6.00 | < 6.00 | 6.00 to 6.30 | < 6.00 | pIC50 (MDAMB231): < 6.00; pIC50 (ACHN): < 6.00; pIC50 (A498): < 6.00; pIC50 (OPM2): 6.30 to 7.00; pIC50 (DU145): < 6.00; pIC50 (A4513): 6.30 to 7.00; pIC50 (PLCPRF5): < 6.00; pIC50 (KARPAS299): 6.00 to 6.30; pIC50 (AGS): < 6.00; pIC50 (PANC1): < 6.00; pIC50 (H1299): < 6.00; pIC50 (HEP2): < 6.00; pIC50 (BT20): < 6.00 |
